Source: US7939097B2, “Intraocular lens containing releasable medication” (Carl Zeiss Meditec SAS, priority 1996, dated 2011)
“And” between values parts separate entries of the source, which are not always exact repeats. Identical values can stand only once.

Key:
[1] = test system: inflammatory reactions of the eye; assay: Clinical examination of rabbit eyes implanted with indomethacin PMMA lenses (Example 3); format: in vivo; settings: PMMA IOL impregnated with indomethacin implanted in rabbit eye, opposite eye as control
[2] = test system: inflammatory reactions of the eye; format: in vivo
Method: (§2) Samples of aqueous humor (approximately 150 μl) and plasma (approximately 2 ml) were taken at random intervals.

in vivo = settings: rabbit
Method: as §2

[3] = Saturated diclofenac solution in 0.9% NaCl; format: physicochemical; settings: sodium diclofenac dissolved in 0.9% NaCl solution
Method: (§1) Initially, polyHEMA soft IOLs were impregnated by immersing them in a solution saturated with diclofenac (1.8 mg/ml, prepared by dissolving sodium diclofenac in a 0.9% solution of NaCl), at room temperature for 72 hours, carefully rinsed and then released into 1 ml of a 0.9% NaCl solution. After 6 hours, 24 hours and 96 hours, the diclofenac was measured in the release solution by HPLC, after which the IOL was rinsed and, for the intermediate durations, left to release in a new solution. It is understood that the released quantities correspond to the quantities previously absorbed and fixed in the IOLs In all the preceding examples the diclofenac was used at concentrations of 1.8 mg/ml or 1.5 mg/ml that is at or only slightly below the saturation level.

[4] = In vitro release of diclofenac from polyHEMA soft IOLs, impregnated for 72 hours (Example 7); format: physicochemical
Method: as §1, with “IOLs” for “IOLs In all the preceding examples the diclofenac was used at concentrations of 1.8 mg/ml or 1.5 mg/ml that is at or only slightly below the saturation level.”

[5] = In vitro release of diclofenac from polyHEMA soft IOLs, impregnated for 7 days (Example 8); format: physicochemical; settings: for Released quantities: polyHEMA IOL impregnated 7 days in saturated diclofenac; for Cumulative or total released quantities: polyHEMA IOL impregnated 7 days
Method: as §1, with “The experiment of Example 7 was repeated leaving” for “In all”, “IOLs in” for “preceding examples”, “saturated solution for 7 days instead” for “diclofenac was used at concentrations”, “3. The quantities released were checked after 6 hours and 24 hours.” for “1.8 mg/ml or 1.5 mg/ml that is at or only slightly below the saturation level.”

[6] = In vitro kinetics of release of diclofenac at 35° C. over 14 days; format: physicochemical; settings: release in 0.9% NaCl at 35° C.
Method: The following experiments were intended to determine more precisely the kinetics of release of diclofenac (in vitro experiments). As previously, the quantities released were measured by sampling the release medium (0.9% neutral NaCl solution) at intervals for measurement and renewing it for a new interval. The samples were taken after 6 hours and 24 hours and then every 24 hours for 14 days in total. To approximate the actual (i.e. in vivo) conditions of use more closely, release was effected at 35° C. The IOLs were impregnated by two different methods. […] A second experiment was carried out without sterilization, the IOLs remaining in the diclofenac solution for 24 hours. The quantities released were substantially the same, to within ±10%, and are set out in the table below in hours (H), days (D) and μg/ml.

[7] = Forced release of diclofenac after autoclaving and 10 days in the impregnation solution (Example 10); format: physicochemical
Method: Each of three hydrophilic acrylic implants of the type used in Example 9 was first introduced into the container with a 0.9% NaCl solution containing 1.5 mg/ml diclofenac solution. The container was then autoclaved at 122° C. for 30 minutes. After autoclaving, the IOLs were left in their impregnation solution for 10 days at ambient temperature. The procedure described in Example 9 was used to release the absorbed quantities of the diclofenac from the IOLs. The amounts released were respectively 83.57 μg, 101.66 μg, 84.16 μg or an average of 89.79 μg per implant.

[8] = Diclofenac absorbed versus time in the impregnation solution after sterilization (Example 12); format: physicochemical; settings: for Average amount of diclofenac released (absorbed) per IOL: average of three IOLs; for amount of diclofenac released (absorbed) per IOL: individual tests
Method: This example included tests on 21 IOLs to ascertain the time it takes for the amount of diclofenac absorbed by the IOL to reach its equilibrium. Each IOL was immersed in 5 ml of 1.5 mg/ml diclofenac solution in deionized water and then sterilized as is conventional, namely at 120° C. for a period of 30 minutes. The sterilized IOLs were then allowed to cool and left in the impregnation solution at room temperature for respective periods of 10 days, 20 days, 35 days, 41 days, 50 days and 65 days. At the end of each of these periods, three IOLs were removed and the quantity of diclofenac was then measured by forced release comprising cycles in a double boiler at 97° C. followed by rest periods until the diclofenac was entirely released from the IOLs.
The amounts of diclofenac released and corresponding to the amounts absorbed for the respective periods are expressed in μg.

[9] = Diclofenac fixed from lower-concentration solutions after prior sterilization (Example 13); format: physicochemical; settings: pre-sterilized hydrophilic acrylic IOL; for quantity of diclofenac fixed per IOL: 4 days of immersion
Method: In these tests, the hydrophilic acrylic IOLs were first sterilized in their sealed containers in a 0.9% NaCl solution, in accordance with the standard sterilization procedure used for conventional IOLs. The solution contained no active ingredient of any kind. After sterilization at 121° C. for 30 minutes the containers were opened and the IOLs transferred to other containers which had previously been filled with a 0.9% NaCl solution including respectively 0.9 mg/ml, 0.45 mg/ml and 0.225 mg/ml of diclofenac. The IOLs remained immersed in the impregnation solution for 4 days in each case. Thereafter the absorbed quantities of diclofenac were driven out of the IOLs in double boilers at 97° C. as described above. […] In a second series of tests conducted with an impregnation solution of 0.9% NaCl with 0.9 mg/ml under the same conditions as in the first series, except that the residence in the impregnation solution was 49 days. The resulting average quantity of diclofenac fixed by the IOLs was 502 μg per implant.

[10] = test system: postoperative inflammation of the eye; assay: Anti-inflammatory effect of diclofenac-impregnated IOL after cataract operation in rabbits (Example 14); format: in vivo, rabbit; settings: diclofenac-impregnated IOL versus same IOL without medicated product in opposite eye, three rabbits
Method: A test was carried out on three rabbits which were implanted with hydrophilic acrylic IOLs impregnated by autoclaving in a 1.5 mg/ml diclofenac solution at 120° C. for 30 minutes as described in Example 9 above. The object of this test was to determine the anti-inflammatory effect of diclofenac after a cataract operation. After extraction, the crystalline lens in each eye, the left eye was fitted with an impregnated IOL according to the invention and the right eye with the same kind of IOL with no medicated product therein. The eyes of the rabbit were examined by an operator on day one and microscopically by an ophtalmologist on day 7 and day 14 after the operation. The observations are set out in the following table.

With `COc1ccc2c(c1)c(CC(=O)O)c(C)n2C(=O)c1ccc(Cl)cc1` [indomethacin] the “clinical examination: inflammatory reactions” value [1] was “inflammatory reactions had disappeared by the tenth day from implantation”, the “clinical observations: inflammatory reactions” value ([2]; polyHEMA lens impregnated with indomethacin, rabbit eye) was “inflammatory reactions disappeared at least as quickly as in Example 3” and the “clinical observations: tolerance of the lenses” value ([2]; rabbit, in vivo) was “well tolerated”. For the same compound, the concentration at 7 day (in vivo) was roughly 0.11 µg/mL.

In the case of `O=C(O)Cc1ccccc1Nc1c(Cl)cccc1Cl` [diclofenac], the “concentration of solution saturated with diclofenac” value [3] is reported as 1800 µg/mL, the Released quantities ([4]; polyHEMA IOL impregnated 72 hours at room temperature in saturated diclofenac, release into 1 ml 0.9% NaCl, 6 hours) is reported as 127 µg/mL and the “Cumulative or total released quantities” value ([4]; polyHEMA IOL impregnated 72 hours, 6 hours) is reported as 127 µg/mL. For the same compound, the “Cumulative or total released quantities” value ([4]; polyHEMA IOL impregnated 72 hours, 24 hours) was 222 µg/mL, the “Cumulative or total released quantities” value ([4]; polyHEMA IOL impregnated 72 hours, 96 hours) was 333 µg/mL and the Released quantities ([4]; polyHEMA IOL impregnated 72 hours, release into new 1 ml 0.9% NaCl, 24 hours) was 95 µg/mL. It also gave a Released quantities ([4]; polyHEMA IOL impregnated 72 hours, release into new 1 ml 0.9% NaCl, 96 hours) of 111 µg/mL, a Released quantities ([5]; 6 hours) of 122 µg/mL and a Released quantities ([5]; 24 hours) of 109 µg/mL. For the same compound, the “Cumulative or total released quantities” value ([5]; 6 hours) was 122 µg/mL, the “Cumulative or total released quantities” value ([5]; 24 hours) was 231 µg/mL and the “quantities released (Q)” value ([6]; IOL saturated with diclofenac, medium renewed each interval, 6 H) was 95 µg/mL. The “quantities released (Q)” value ([6]; medium renewed, 2 D) was 40 µg/mL, the “quantities released (Q)” value ([6]; medium renewed, 3 D) was 30 µg/mL and the “quantities released (Q)” value ([6]; medium renewed, 4 D) was 20 µg/mL. For the same compound, the “quantities released (Q)” value ([6]; medium renewed, 5 D) was 18 µg/mL, the “quantities released (Q)” value ([6]; medium renewed, 6 D) was 12 µg/mL and the “quantities released (Q)” value ([6]; medium renewed, 7 D) was 10 µg/mL. For the same compound, the “quantities released (Q)” value ([6]; medium renewed, 8 D) was 10 µg/mL, the “quantities released (Q)” value ([6]; medium renewed, 9 D) was 11 µg/mL and the “quantities released (Q)” value ([6]; medium renewed, 10 D) was 12 µg/mL. For the same compound, the “quantities released (Q)” value ([6]; medium renewed, 11 D) was 14 µg/mL, the “quantities released (Q)” value ([6]; medium renewed, 12 D) was 16 µg/mL and the “quantities released (Q)” value ([6]; medium renewed, 13 D) was 18 µg/mL. The “quantities released (Q)” value ([6]; medium renewed, 14 D) was 20 µg/mL, the “quantities released (Q)” value ([6]; medium renewed, 24 H) was 80 µg/mL and the “average amount of diclofenac released per implant” value ([7]; as Example 10, average of three implants) was 89.79 µg. For the same compound, the “amounts of diclofenac released per implant” value ([7]; hydrophilic acrylic IOL autoclaved at 122° C. for 30 minutes in 1.5 mg/ml diclofenac in 0.9% NaCl, then 10 days in the solution at ambient temperature, individual implants) was 83.57 µg and 101.66 µg and 84.16 µg, the “Average amount of diclofenac released (absorbed) per IOL” value (“Average amount … per IOL” below) ([8]; Day 0) was 33.58 µg and the “Average amount … per IOL” value ([8]; Day 35) was 92.96 µg. The “Average amount … per IOL” value ([8]; Day 41) was 102.39 µg, the “Average amount … per IOL” value ([8]; Day 50) was 104.33 µg and the “Average amount … per IOL” value ([8]; Day 65) was 102.37 µg. For the same compound, the “amount of diclofenac released (absorbed) per IOL” value ([8]; sterilized at 120° C. for 30 minutes in 1.5 mg/ml diclofenac in deionized water, Day 0) was 36.01 µg and 31.13 µg and 33.59 µg, the “amount of diclofenac released (absorbed) per IOL” value ([8]; sterilized, then left in impregnation solution at room temperature, Day 10) was 83.57 µg and 101.66 µg and 84.16 µg and the “amount of diclofenac released (absorbed) per IOL” value ([8]; sterilized, then left in impregnation solution, Day 20) was 92.68 µg and 95.60 µg and 109.99 µg. The “amount of diclofenac released (absorbed) per IOL” value ([8]; sterilized, then left in impregnation solution, Day 35) was 86.65 µg and 100.06 µg and 92.18 µg, the “amount of diclofenac released (absorbed) per IOL” value ([8]; sterilized, then left in impregnation solution, Day 41) was 106.94 µg and 108.33 µg and 91.90 µg and the “amount of diclofenac released (absorbed) per IOL” value ([8]; sterilized, then left in impregnation solution, Day 50) was 85.29 µg and 114.80 µg and 112.90 µg. The “amount of diclofenac released (absorbed) per IOL” value ([8]; sterilized, then left in impregnation solution, Day 65) was 107.06 µg and 98.64 µg and 101.41 µg, the “quantity of diclofenac fixed per IOL” value ([9]; 0.225 mg/ml diclofenac in 0.9% NaCl) was 70 µg and the “quantity of diclofenac fixed per IOL” value ([9]; 0.45 mg/ml diclofenac in 0.9% NaCl) was 148 µg. For the same compound, the “quantity of diclofenac fixed per IOL” value ([9]; 0.90 mg/ml diclofenac in 0.9% NaCl) was 276 µg, the “average quantity of diclofenac fixed per implant” value ([9]; 0.9 mg/ml diclofenac in 0.9% NaCl, 49 days in the impregnation solution) was 502 µg and the “anti-inflammatory effect, summary” value [10] was “real anti-inflammatory effect”.
